Source: patent publication US11390621B2, “Chiral indole compounds and their use” (ARIAGEN, INC., priority 2019, dated 2022)

Key:
Format in all cases: in vitro ADME
[1] = Hepatocyte intrinsic clearance assay (metabolic stability), human hepatocytes; details: male, human, cryopreserved pooled hepatocytes, Human Hepatocytes, 1 μM test compound
Text: (§1) The liver is an important organ in the body for drug metabolism. This Example describes hepatocyte intrinsic clearance assays using both human and rat hepatocytes to evaluate the metabolic stability of the indole compounds disclosed herein. The parameters measured include t1/2 (half-life), CLint (intrinsic clearance), and EH (hepatic extraction ratio).
(§2) Testosterone (Lot FE111011-01) was obtained from Cerilliant (Round Rock, Tex.). 7-hydroxycoumarin (Lot 11631ED) was obtained from Sigma Aldrich (St. Louis, Mo.). Cryopreserved human hepatocytes pooled from ten donor males (X008001), cryopreserved male IRC/CD-1 mouse hepatocytes (M005052), INVITROGRO HI Medium (incubation), and INVITROGRO HT Medium (thawing) were obtained from Bioreclamation IVT (Baltimore, Md.). All solvents were obtained from commercial sources and used without further purification.
(§3) Each test compound was prepared as a 1 mM stock solution in DMSO. A 2 μM solution of test compound and positive controls were prepared in INVITROGRO HI Medium (incubation). These solutions were pre-warmed in a sterile incubator set to maintain 37° C., 5% CO2, and 98% humidity. Cryopreserved hepatocytes were prepared at a concentration of 2×10^6 living cells/mL in incubation media and pre-warmed in the incubator. The compound solutions and hepatocyte mixtures were then combined at a ratio of 1:1 (v:v). The final volume of the reaction mixture was 750 μL, containing 1 μM test compound (10 μM for 7-hydroxycoumarin) and […]. The reaction mixture was placed in the incubator on a plate shaker. After 0, 15, 30, 60, 90, and 120 minutes of incubation, 100 μL of reaction mixtures were removed from the incubation plate and mixed with 150 μL of ice-cold acetonitrile in a designated well of a 96-well crash plate. The 96-well crash plate was placed on ice for 15 min, and samples were centrifuged (3,600 RPM, 10 min, 4° C.) to precipitate protein. The supernatants were diluted 1:1 (v:v) with water containing 0.15 μM verapamil and/or 1 μM tolbutamide (internal standards for positive and negative modes, respectively) in a 96-well shallow injection plate. This plate was sealed for LC-MS analysis. All measurements were done in duplicate.
(§4) The residual compound remaining (% R) was determined from LC-MS peak areas by comparison to the zero time point. Metabolic half-life (t1/2) and intrinsic clearance (CLint) values were calculated from the slope of the plot of ln (% R) vs. time and the concentration of hepatocytes present in the incubation. Percent remaining at 60 minutes was calculated by plugging in the 60 minute value into the slope equation generated by the percent remaining time points.
(§5) In vivo hepatic clearance CLH was calculated using the well stirred liver model according to the following equation:
(§6) [formula] where QH is the total liver blood flow, fu is unbound fraction of the drug, and CL′int is defined as follows: CL′int=CLint×(10^6 cells/g of liver weight)×(g liver weight/kg of body weight). In the first approximation, used in this study, fu=1.
(§7) Hepatic extraction ratio EH was calculated using the following equation:
(§8) [formula] Corresponding physiological parameters used in calculations for all species are shown below in Table 3.

human hepatocytes = assay: as above; details: Human Hepatocytes; well stirred liver model, fu=1
Text: as §1, §2, §3, §4, §5, §6, §7, §8

[2] = Hepatocyte intrinsic clearance assay (metabolic stability), rat hepatocytes; details: rat, cryopreserved hepatocytes, Rat Hepatocytes, 1 μM test compound
Text: as §1, §2, §3, §4, §5, §6, §7, §8

rat hepatocytes = assay: as above; details: Rat Hepatocytes; well stirred liver model, fu=1
Text: as §1, §2, §3, §4, §5, §6, §7, §8

[3] = CYP profiling: turnover in human liver microsomes, 30 min, no inhibitor; set-up: % Compound Metabolized at 30 min, No Inhibitor: concentration or dose not given beside the values; details: HLMs
Experimental: (§9) In order to investigate the contributions of CYP1A2 and CYP3A4 to the metabolism of the compounds of the present disclosure, human liver microsomes were incubated with the test compounds for 30 minutes in the presence of selective chemical inhibitors furafylline (1A2) and ketoconazole (3A4).

CYP1A2 = target: T1, CYP1A2 (Homo sapiens, UniProt P05177); assay: CYP profiling: human liver microsomes with CYP1A2 inhibitor furafylline; set-up: % Compound Metabolized at 30 min, CYP1A2 Inhibitor: concentration or dose not given beside the values; details: HLMs
T1 construct: from tissue; host or cells: human liver microsomes
T1 sequence (P05177 1-516): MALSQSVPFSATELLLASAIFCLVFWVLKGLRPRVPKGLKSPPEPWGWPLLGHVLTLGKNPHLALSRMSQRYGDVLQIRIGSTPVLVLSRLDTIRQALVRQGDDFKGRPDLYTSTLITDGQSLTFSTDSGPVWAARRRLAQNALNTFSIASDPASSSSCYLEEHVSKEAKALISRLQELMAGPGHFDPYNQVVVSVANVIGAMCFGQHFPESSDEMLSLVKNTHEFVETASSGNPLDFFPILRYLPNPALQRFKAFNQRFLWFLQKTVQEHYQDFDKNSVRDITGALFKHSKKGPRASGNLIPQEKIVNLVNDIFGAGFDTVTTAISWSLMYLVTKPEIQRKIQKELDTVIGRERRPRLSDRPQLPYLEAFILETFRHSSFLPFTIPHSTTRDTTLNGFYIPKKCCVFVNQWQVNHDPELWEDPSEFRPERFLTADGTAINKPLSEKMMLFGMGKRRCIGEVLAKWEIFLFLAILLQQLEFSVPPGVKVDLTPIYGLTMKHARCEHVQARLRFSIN
Experimental: as §9

CYP3A4 = target: T2, CYP3A4 (Homo sapiens, UniProt P08684); assay: CYP profiling: human liver microsomes with CYP3A4 inhibitor ketoconazole; set-up: % Compound Metabolized at 30 min, CYP3A4 Inhibitor: concentration or dose not given beside the values; details: HLMs
T2 construct: from tissue; host or cells: human liver microsomes
T2 sequence (P08684 whole entry): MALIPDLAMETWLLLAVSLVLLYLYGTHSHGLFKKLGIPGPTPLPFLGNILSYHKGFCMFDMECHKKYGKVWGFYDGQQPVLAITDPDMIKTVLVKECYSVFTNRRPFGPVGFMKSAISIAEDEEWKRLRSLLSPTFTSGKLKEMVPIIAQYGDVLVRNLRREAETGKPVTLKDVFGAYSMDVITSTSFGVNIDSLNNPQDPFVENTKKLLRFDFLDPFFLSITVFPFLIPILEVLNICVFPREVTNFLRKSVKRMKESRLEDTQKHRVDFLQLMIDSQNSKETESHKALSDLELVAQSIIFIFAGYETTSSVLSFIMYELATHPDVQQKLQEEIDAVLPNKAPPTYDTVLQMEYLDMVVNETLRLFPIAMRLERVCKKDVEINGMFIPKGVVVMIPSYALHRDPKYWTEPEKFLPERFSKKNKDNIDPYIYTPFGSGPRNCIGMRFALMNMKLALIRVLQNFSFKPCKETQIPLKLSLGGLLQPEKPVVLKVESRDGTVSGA
Experimental: as §9

SMILES: NC(c1csc(C(=O)c2c[nH]c3ccccc23)n1)C(F)(F)F (centres unmarked) [ARI-100]
- half-life at 1 μM [1]: 46.1 h
- hepatocyte CLint at 1 μM [1]: 0.251 µL/min/1e6 cells
- EH (hepatic extraction ratio) (human hepatocytes): 1.9%
- half-life at 1 μM [2]: 1.3 h
- hepatocyte CLint at 1 μM [2]: 8.73 µL/min/1e6 cells
- EH (hepatic extraction ratio) (rat hepatocytes): 36.9%
- % Compound Metabolized at 30 min, No Inhibitor [3]: 2%
- % Compound Metabolized at 30 min, CYP1A2 Inhibitor (CYP1A2): 0%
- % Inhibition Relative to Negative Control, 1A2 (CYP1A2; 30 min): 100%
- % Compound Metabolized at 30 min, CYP3A4 Inhibitor (CYP3A4): 8%
- % Inhibition Relative to Negative Control, 3A4 (CYP3A4; 30 min): None
